Article PMC6556873, “Rapid Covalent-Probe Discovery by Electrophile-Fragment Screening” (Journal of the American Chemical Society, 2019)
Like-named read-outs stand apart in the source and are kept apart here.

Experiments:
[1] = in vitro; design: species or system CCD841, HEK293; conditions: human, hb2 cells, read-out: HB-2 Cells Viability (%)
[2] = in vitro; design: species or system HB2, CCD841; conditions: human, hek293 cells
[3] = in vitro; design: species or system HB2, HEK293; conditions: human, ccd841 cells
[4] = target: T1, OTUB2 (OTUB2A) (Homo sapiens, UniProt Q96DC9); design: Intact protein LC/MS covalent labelling, fragments in pools of five, 200 uM each, 4 °C; conditions: 24 h, 4 °C, pool of five; 200 µM; covalent
T1 construct: full length residues 1-234, E. coli BL21(DE3)-R3, His tag removed by TEV, construct 27312 Da
T1 sequence (Q96DC9 1-234): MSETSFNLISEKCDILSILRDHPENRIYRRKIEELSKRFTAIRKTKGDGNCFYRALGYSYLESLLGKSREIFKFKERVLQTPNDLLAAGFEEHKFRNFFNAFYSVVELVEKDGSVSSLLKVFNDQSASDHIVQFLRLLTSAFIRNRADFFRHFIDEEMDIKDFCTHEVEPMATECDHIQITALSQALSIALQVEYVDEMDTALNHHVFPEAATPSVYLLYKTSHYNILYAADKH
Method: (§1) Incubations were performed at 200 μM for each compound and 2 μM of protein (10 μM for BSA) for 24 h at 4 °C with moderate shaking. Incubation buffers varied among proteins (PBS pH 7.4 for QSOX1 and BSA; 10 mM HEPES pH 7.5, 0.3 M NaCl, 0.5 mM TCEP for PCAF, UPS8, and NUDT7; […]; 10 mM Na2HPO4 pH 7.5 100 mM NaCl 5 mM β-mercaptoethanol for NV3CP; 20 mM Na phosphate pH 7.5 for NNMT; […]. The reaction was stopped by quenching with formic acid, 0.4% final concentration. Each protein was incubated with the electrophilic library in pools of five compounds per well. The pool’s composition maximized the difference in mass between fragments in the same well. Incubations were performed with each fragment at 200 μM, for 24 h at 4 °C, to allow the screening of proteins that are not stable for long time periods at higher temperatures. Following incubation, we used intact protein [compound left out] chromatography/mass spectrometry (LC/MS) to identify the fragments and quantify their labeling (Figure 3A). […] There was good agreement between the percent of labeling of NUDT7 by 100 random individual compounds and that obtained in pools of five (R^2=0.78; Figure S6 and Data set 2 in the Supporting Information).

[5] = target: T2, PCAF (Homo sapiens, UniProt Q92831); design: Intact protein LC/MS covalent labelling, fragments in pools of five, 200 uM each, 4 °C; conditions: 24 h, 4 °C, pool of five; 200 µM; covalent
T2 construct: gene KAT2B
Method: as §1

[6] = target: T3, BSA (Bos taurus, UniProt P02769); design: Intact protein LC/MS covalent labelling, fragments in pools of five, 200 uM each, 4 °C; conditions: 24 h, 4 °C, pool of five; 200 µM; covalent
T3 construct: gene ALB
Method: as §1

[7] = target: T4, NUDT7 (Homo sapiens, UniProt P0C024); design: Intact protein LC/MS covalent labelling, fragments in pools of five, 200 uM each, 4 °C; conditions: 24 h, 4 °C, pool of five; 200 µM; covalent
T4 construct: residues 14-235, E. coli, pNIC28-Bsa4, N-terminal His6 tag removed by TEV, construct 26672 Da
Method: as §1

T3 sequence (P02769 whole entry, the tested form may be a part): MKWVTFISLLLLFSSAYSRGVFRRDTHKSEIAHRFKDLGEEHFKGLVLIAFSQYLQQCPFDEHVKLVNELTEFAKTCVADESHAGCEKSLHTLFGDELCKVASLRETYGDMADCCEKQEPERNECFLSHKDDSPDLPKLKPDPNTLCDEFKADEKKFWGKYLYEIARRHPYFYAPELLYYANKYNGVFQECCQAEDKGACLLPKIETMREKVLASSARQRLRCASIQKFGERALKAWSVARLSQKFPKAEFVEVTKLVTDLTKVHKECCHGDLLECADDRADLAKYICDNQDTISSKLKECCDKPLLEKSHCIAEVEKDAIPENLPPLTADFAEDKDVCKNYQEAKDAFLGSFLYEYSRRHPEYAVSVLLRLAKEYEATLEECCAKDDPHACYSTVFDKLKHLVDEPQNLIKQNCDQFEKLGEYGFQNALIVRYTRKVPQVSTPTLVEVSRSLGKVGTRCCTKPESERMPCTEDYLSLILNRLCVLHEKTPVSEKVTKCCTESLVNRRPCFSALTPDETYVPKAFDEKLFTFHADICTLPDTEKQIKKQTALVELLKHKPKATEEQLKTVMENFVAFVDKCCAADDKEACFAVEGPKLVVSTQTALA
T2 sequence (Q92831 whole entry, the tested form may be a part): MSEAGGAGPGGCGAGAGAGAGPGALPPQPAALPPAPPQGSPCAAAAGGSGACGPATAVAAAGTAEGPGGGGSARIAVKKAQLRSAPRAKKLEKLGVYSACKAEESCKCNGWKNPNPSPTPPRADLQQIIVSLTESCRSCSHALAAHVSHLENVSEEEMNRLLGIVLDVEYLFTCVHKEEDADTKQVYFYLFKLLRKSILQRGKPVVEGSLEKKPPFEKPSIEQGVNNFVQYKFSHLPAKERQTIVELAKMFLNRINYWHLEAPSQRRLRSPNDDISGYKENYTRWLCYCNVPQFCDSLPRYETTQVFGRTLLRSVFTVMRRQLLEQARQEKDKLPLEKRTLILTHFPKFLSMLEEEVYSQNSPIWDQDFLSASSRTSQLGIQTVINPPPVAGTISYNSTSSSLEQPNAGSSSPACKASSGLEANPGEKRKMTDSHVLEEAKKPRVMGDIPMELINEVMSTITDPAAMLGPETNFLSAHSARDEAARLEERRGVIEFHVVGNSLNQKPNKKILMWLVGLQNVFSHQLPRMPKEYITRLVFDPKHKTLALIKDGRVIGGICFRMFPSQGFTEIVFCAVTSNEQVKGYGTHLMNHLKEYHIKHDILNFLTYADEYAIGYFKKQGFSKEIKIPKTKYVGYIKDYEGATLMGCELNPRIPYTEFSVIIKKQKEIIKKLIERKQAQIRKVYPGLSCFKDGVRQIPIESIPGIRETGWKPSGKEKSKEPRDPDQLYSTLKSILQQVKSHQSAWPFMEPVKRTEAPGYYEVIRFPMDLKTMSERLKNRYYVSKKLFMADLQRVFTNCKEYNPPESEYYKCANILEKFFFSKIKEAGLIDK
T4 sequence (P0C024 14-235): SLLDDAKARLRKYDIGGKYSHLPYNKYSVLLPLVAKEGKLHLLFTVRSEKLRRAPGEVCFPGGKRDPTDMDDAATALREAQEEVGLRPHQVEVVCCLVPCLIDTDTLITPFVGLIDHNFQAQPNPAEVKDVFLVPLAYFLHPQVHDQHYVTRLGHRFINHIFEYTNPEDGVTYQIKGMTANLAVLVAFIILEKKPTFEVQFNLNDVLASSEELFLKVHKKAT

Compound	OTUB2 [4]	PCAF [5]	BSA [6]	NUDT7 [7]	viability at 48 h, 10 µM [1]	viability at 48 h, 10 µM [2]	viability at 48 h, 10 µM [3]
O=C(CCl)Nc1ccc2c(c1)OC1(CCCCC1)O2 [PCM-0102104]	0.47	0	0	0.08	5.9%	1.4%	62.1%
C=CC(=O)NC(=O)NC12CC3CC(CC(C3)C1)C2 [PCM-0102106]	0	0	0	0.79	26.6%	42%	80.9%
N#Cc1c2c(n(-c3ccccc3)c1NC(=O)CCl)CCCC2 [PCM-0102107]	0.08	0	0	0.46	18%	7.6%	53.9%
CC(NC(=O)CCl)c1ccccc1Cl (stereo not drawn) [PCM-0102110]	0.25	0	0	0	70.8%	65.7%	74.2%
O=C(CCl)Nc1ccc(Cl)c(Cl)c1 [PCM-0102112]	0.3	0	0	0.18	2%	1.4%	26%
CC(=O)Nc1ccc(NC(=O)CCl)cc1 [PCM-0102114]	0	0	0	0	69.9%	56%	57.7%
Cc1cccc(NC(=O)CCl)c1 [PCM-0102116]	0.11	0	0	0	33.7%	9%	66.4%
CC(NC(=O)CCl)c1cc2ccccc2o1 (stereo not drawn) [PCM-0102117]	0.41	0	0	0.12	71%	62.9%	70.7%
O=C(CCl)Nc1ccc(Cl)cc1 [PCM-0102120]	0.23	0	0	0.18	16.7%	2.7%	55.2%
O=C(CCl)NC(=O)NCc1ccccc1 [PCM-0102122]	0	0	0	0	54.8%	65.5%	76.9%

Second part, led by results:

OTUB2 [4]	PCAF [5]	BSA [6]	NUDT7 [7]	Compound	viability at 48 h, 10 µM [1]	viability at 48 h, 10 µM [2]	viability at 48 h, 10 µM [3]
0	0	0	0	CCN(C(=O)CCl)C1CCS(=O)(=O)C1 (stereo not drawn) [PCM-0102105]	95%	54.9%	68.1%
0	0	0	0	O=C(CCl)NC1CCCCNC1=O (stereo not drawn) [PCM-0102109]	94.1%	109%	103%
0	0	0	0.15	O=C(CCl)N1CCN(S(=O)(=O)c2ccc(Cl)s2)CC1 [PCM-0102121]	1.7%	2%	20.6%
0.39	0	0	0.14	O=C(CCl)N1CCc2sccc2C1 [PCM-0102123]	9.2%	6.6%	73.1%
0	0	0	0.29	O=C(CCl)N1CCN(c2ccc(Cl)cc2[N+](=O)[O-])CC1 [PCM-0102125]	2.3%	1.4%	8.1%
